This is an account of results in US20200002432A1, “ANTI-CD98 ANTIBODIES AND ANTIBODY DRUG CONJUGATES” (AbbVie Inc., priority 2016, published 2020).

Assay [1] has as its system NCI-H460 human lung carcinoma xenograft. The experiment in a line: NCI-H460 xenograft tumor growth inhibition in SCID-bg mice, with or without docetaxel. The assay is classed as in vivo, mouse. Particulars: QD × 1, Ab095 8 mg/kg IP, docetaxel 7.5 mg/kg IV, ADC 10 mg/kg IP, combination 7.5 + 10. On the procedure: (§1) The cell lines A549 and NCI-H460 were obtained from the American Type Culture Collection (ATCC, Manassas, Va.). A549 cell line was further passaged in mice as flank xenograft to improve xenograft tumor growth, resulting in the A549-FP3 line. Cells were cultured as monolayers in RPMI-1640 culture media (Invitrogen, Carlsbad, Calif.) supplemented with 10% Fetal Bovine Serum (FBS, Hyclone, Logan, Utah). To generate xenografts, 5×10^6 (A549 and NCI-H460) viable cells were inoculated subcutaneously into the right flank of immune deficient female SCID-bg mice (Charles River Laboratories, Wilmington, Mass.). The injection volume was 0.2 ml and composed of 1:1 S-MEM:Matrigel Matrigel (BD, Franklin Lakes, N.J.). Tumors were size matched at approximately 223 mm^3. Antibodies, conjugates, and docetaxel were formulated in 0.9% sodium chloride for injection. […] Therapy began within 24 hours after size matching of the tumors. Mice weighed approximately 21 g at the onset of therapy. Tumor volume was estimated two to three times weekly. Measurements of the length (L) and width (W) of the tumor were taken via electronic caliper and the volume was calculated according to the following equation: V=L×W^2/2. […] Eight mice were housed per cage. […] Tumor growth inhibition is calculated by 100*(1−Tv/Cv) where Tv and Cv are the mean tumor volumes of the treated and control groups, respectively.

For assay [2], the system named is A549-FP3 human lung carcinoma xenograft. Kind of assay: A549 FP3 xenograft tumor growth inhibition in SCID-bg mice, with or without docetaxel. The assay is classed as in vivo, mouse. The conditions noted are these: QD × 1, Ab095 8 mg/kg IP, docetaxel 7.5 mg/kg IV, ADC 10 mg/kg IP, combination 7.5 + 10. On the procedure: as §1

SMILES strings stand for the structures.

Consider `CC(=O)O[C@@]12CO[C@@H]1C[C@H](O)[C@@]1(C)C(=O)[C@H](O)C3=C(C)[C@@H](OC(=O)[C@H](O)[C@@H](NC(=O)OC(C)(C)C)c4ccccc4)C[C@@](O)([C@@H](OC(=O)c4ccccc4)[C@H]21)C3(C)C` [Docetaxel, reference compound], for which the “TGD (%)” value in assay [1] was determined as 30%; in assay [2], 80%. The “TGImax (%)” value is 35% in assay [1] and 62% in assay [2].
